The values below are quoted from earlier work in patent US20090030075A1, “Remedy for and Method of Treating Ischemic Cerebral Stroke” (priority 2005, published 2009).

The series has as its system cerebral infarction lesion. To be noted: FR139317 used together with SUN9216.

As to `CC(C)C[C@H](NC(=O)N1CCCCCC1)C(=O)N[C@H](Cc1cn(C)c2ccccc12)C(=O)N[C@H](Cc1ccccn1)C(=O)O` [FR139317], the “activity of inhibiting development of a cerebral infarction lesion” value is “this effect disappears”.
